Reference: the NIST ThermoML archive (doi:10.1016/j.jct.2012.02.028)

Conditions: 101.33 kPa, Crystal, Vacuum adiabatic calorimetry

O=C([O-])[O-].[Zn+2] [zinc(II) carbonate]
Conditions	molar entropy [J/K/mol]
5 K	0.00258
10 K	0.02006
15 K	0.07123
20 K	0.1881
25 K	0.41
30 K	0.7694
35 K	1.284
40 K	1.959
45 K	2.788
50 K	3.759
55 K	4.862
60 K	6.081
65 K	7.403
70 K	8.815
75 K	10.3
80 K	11.85
85 K	13.45
90 K	15.1
95 K	16.78
100 K	18.49
105 K	20.21
110 K	21.95
115 K	23.7
120 K	25.45
130 K	28.95
140 K	32.44
150 K	35.9
160 K	39.32
170 K	42.69
180 K	46.02
190 K	49.28
200 K	52.5
210 K	55.65
220 K	58.75
230 K	61.8
240 K	64.79
250 K	67.73
260 K	70.62
270 K	73.48
273.15 K	74.37
280 K	76.29
290 K	79.06
298.15 K	81.28
300 K	81.78
310 K	84.45
320 K	87.09
